Values of other authors in patent publication US20050163829A1, “Device and patch for controlled release of vanillin” (priority 2001, published 2005).

Columns and labels:
[1] = tested on: GABA receptor
[2] = tested on: glutamate receptors (KA)
[3] = tested on: glutamate receptors (NMDA)
[4] = tested on: nicotinic acetylcholine receptor (nACh)

| SMILES | effect on the GABA receptor [1] | effect on the glutamate receptor KA [2] | effect on the glutamate receptor NMDA [3] | effect on the nicotinic acetylcholine receptor (nACh) [4] |
| --- | --- | --- | --- | --- |
| COc1cc(C=O)ccc1O [Vanillin, 3 methoxy-4 hydroxybenzaldehyde] | inhibited | inhibitory effect | inhibitory effect | inhibited |
| CCCCOC(C)=O [butyl acetate] | stimulate | – | – | – |
| CC(C)=CCC/C(C)=C/CO [geraniol] | stimulate | – | – | – |
